According to publication PMC6273578, “Design, Synthesis and Biological Evaluation of Benzohydrazide Derivatives Containing Dihydropyrazoles as Potential EGFR Kinase Inhibitors” (Molecules, 2016):

Tests used:
A549 cells = assay: MTT antiproliferative assay, A549; assay type: cell-based, human; conditions: Homo sapiens, read-out: In vitro antiproliferative activity IC50, A549
Experimental: (§1) IC50 values of the test compounds against A549, MCF-7, Hela and HepG2 cells were obtained from State Key Laboratory of Pharmaceutical Biotechnology, Nanjing University, and were determined by a standard (MTT)-based colorimetric assay (Beyotime Inst. Biotech., Nanjing, China). Tumor cell lines were grown to mid-log phase and then diluted to […] making sure they were seeded in 96-well plates (Philas, Nanjing, China) at a density of 5 × 10^3–1 × 10^4 cells per well. The outer wells containing 1 × PBS solution of the plate are not used for the assay to avoid the possibility of edge effects. The plate was incubated at 37 °C in a 5% CO2 incubator in DMEM containing 10% fetal bovine serum (FBS, Gibco, Waltham, MA, USA) for 24 h. Then, we added a 100-μL series concentration of drug-containing medium into the wells to maintain the final concentration of drug as 100, 10, 1 and 0.1 μmol/L. After 12 h, cell survival was determined by the addition of a MTT (3-(4,5-dimethylthiazol-2-yl)-2,5-diphenyl trtrazolium bromide) solution (10 μL of 5 mg/mL MTT in 1 × PBS). We waited for 4 h proliferation, discarded the medium and quickly added 150 μL DMSO per well, shaking the plates well for 10 min to ensure complete dissolution. Optical absorbance was measured at 570 nm on a microplate reader (Bio-Rad, Hercules, CA, USA). Survival ratios are expressed in percentages with respect to untreated cells. The experiments were replicated at least three times to verify the methodology reproducibility when using the above-mentioned conditions.

MCF-7 cells = assay: MTT antiproliferative assay, MCF-7; assay type: cell-based, human; conditions: Homo sapiens, MCF7, read-out: In vitro antiproliferative activity IC50, MCF-7
Experimental: as §1

HeLa cells = assay: MTT antiproliferative assay, HeLa; assay type: cell-based, human; conditions: Homo sapiens, read-out: In vitro antiproliferative activity IC50, HeLa
Experimental: as §1

HepG2 cells = assay: MTT antiproliferative assay, HepG2; assay type: cell-based, human; conditions: Homo sapiens, read-out: In vitro antiproliferative activity IC50, HepG2
Experimental: as §1

[1] = Cytotoxicity test (MTT) on 293T cells; conditions: human, 293T human kidney epithelial cells
Experimental: The cytotoxic activity in vitro was measured by the colorimetric MTT assay. […] For the cytotoxicity assay, 20 μL of MTT (5 mg/mL) was added per well 4 h before the end of the incubation. After removing the supernatant, 200 μL DMSO was added to dissolve the formazan crystals. The absorbance at λ 570 nm was read on an LX300 Epson Diagnostic microplate reader, untreated cells were used as negative controls.

[2] = target: epidermal growth factor receptor (EGFR) (Homo sapiens, UniProt P00533); assay: EGFR kinase inhibition, solid-phase ELISA assay
Chain of epidermal growth factor receptor (EGFR) (P00533 25-1210): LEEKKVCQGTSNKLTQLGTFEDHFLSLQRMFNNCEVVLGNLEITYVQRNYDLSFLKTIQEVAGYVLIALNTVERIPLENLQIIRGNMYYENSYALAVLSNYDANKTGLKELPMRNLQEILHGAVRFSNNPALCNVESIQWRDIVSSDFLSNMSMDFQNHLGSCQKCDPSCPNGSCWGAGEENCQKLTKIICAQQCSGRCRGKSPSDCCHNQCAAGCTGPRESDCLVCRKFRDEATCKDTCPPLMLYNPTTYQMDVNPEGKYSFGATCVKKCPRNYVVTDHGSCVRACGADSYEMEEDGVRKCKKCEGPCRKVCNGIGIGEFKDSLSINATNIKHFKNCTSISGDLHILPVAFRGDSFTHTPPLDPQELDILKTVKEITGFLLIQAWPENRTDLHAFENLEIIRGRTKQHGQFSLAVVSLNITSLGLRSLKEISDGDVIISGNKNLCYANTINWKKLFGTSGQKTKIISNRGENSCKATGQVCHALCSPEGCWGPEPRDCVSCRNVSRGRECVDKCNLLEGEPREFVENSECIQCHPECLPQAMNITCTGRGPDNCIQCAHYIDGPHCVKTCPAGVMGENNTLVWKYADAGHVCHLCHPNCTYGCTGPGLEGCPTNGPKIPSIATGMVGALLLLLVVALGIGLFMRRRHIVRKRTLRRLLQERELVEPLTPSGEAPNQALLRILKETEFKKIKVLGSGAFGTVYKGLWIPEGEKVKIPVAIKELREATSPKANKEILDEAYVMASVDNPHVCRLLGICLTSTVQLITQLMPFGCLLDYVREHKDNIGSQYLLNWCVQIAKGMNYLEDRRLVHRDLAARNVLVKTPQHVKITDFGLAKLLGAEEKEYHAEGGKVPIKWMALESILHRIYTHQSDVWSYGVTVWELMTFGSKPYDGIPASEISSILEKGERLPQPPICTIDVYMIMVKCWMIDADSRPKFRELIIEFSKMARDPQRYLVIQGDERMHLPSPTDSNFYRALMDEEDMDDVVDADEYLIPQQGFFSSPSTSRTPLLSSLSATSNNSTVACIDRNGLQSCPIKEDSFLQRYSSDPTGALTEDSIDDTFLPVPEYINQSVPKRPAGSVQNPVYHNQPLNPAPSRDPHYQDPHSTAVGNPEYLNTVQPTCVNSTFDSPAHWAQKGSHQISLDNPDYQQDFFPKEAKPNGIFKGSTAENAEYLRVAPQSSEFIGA
Experimental: All these newly synthesized compounds were evaluated for their inhibitory activities against EGFR kinases using a solid-phase ELISA assay.
EGFR tyrosine kinase activity was determined by an enzyme linked-immunosorbent assay (ELISA) in 96-well plates precoated in a 10 mL reaction volume including 4 mL diluted test compounds, 4 mL substrate and 2 mL ATP. […] The plates were then aspirated and washed twice with 200 mL 0.9% (w/v) NaCl, and incorporation of Pi was determined with an LX300 Epson Diagnostic microplate reader. […] The experiments were replicated at least three times to verify the methodology reproducibility when using the above-mentioned conditions.

Structure (SMILES) | IC50 (A549 cells) [µM] | IC50 (MCF-7 cells) [µM] | IC50 (HeLa cells) [µM] | IC50 (HepG2 cells) [µM] | CC50 at 24 h [1] [µM] | melting point [°C] | IC50 [2] [µM]
COc1ccc(/C=N/NC(=O)c2ccc(N3N=C(c4cccc(F)c4)CC3c3ccc4ccccc4c3)cc2)cc1 (centres unmarked) [Compound H26, (E)-4-(3-(3-Fluorophenyl)-5-(naphthalen-2-yl)-4,5-dihydro-1H-pyrazol-1-yl)-N′-(4-methoxybenzylidene)-benzohydrazide] | 56.4 | 77.5 | 85.2 | 80.1 | 94.3 | 240 to 242 | 18.6
COc1ccc(/C=N/NC(=O)c2ccc(N3N=C(c4cccc(Cl)c4)CC3c3ccc4ccccc4c3)cc2)cc1 (centres unmarked) [Compound H29, (E)-4-(3-(3-Chlorophenyl)-5-(naphthalen-2-yl)-4,5-dihydro-1H-pyrazol-1-yl)-N′-(4-methoxybenzylidene)-benzohydrazide] | 33.2 | 50.9 | 43 | 41 | 94.4 | 241 to 243 | 11.2
COc1ccc(/C=N/NC(=O)c2ccc(N3N=C(c4cc(F)cc(F)c4)CC3c3ccc4ccccc4c3)cc2)cc1 (centres unmarked) [Compound H28, (E)-4-(3-(3,5-Difluorophenyl)-5-(naphthalen-2-yl)-4,5-dihydro-1H-pyrazol-1-yl)-N′-(4-methoxy-benzylidene)benzohydrazide] | 39.4 | 56.1 | 47.7 | 48.1 | 82.2 | 238 to 240 | 12.3
COc1cccc(/C=N/NC(=O)c2ccc(N3N=C(c4ccc(Br)cc4)CC3c3ccc4ccccc4c3)cc2)c1 (centres unmarked) [Compound H16, (E)-4-(3-(4-Bromophenyl)-5-(naphthalen-2-yl)-4,5-dihydro-1H-pyrazol-1-yl)-N′-(3-methoxybenzylidene)-benzohydrazide] | 21.8 | 31.9 | 26.5 | 34.2 | 81.9 | 245 to 247 | 9.01
COc1cccc(/C=N/NC(=O)c2ccc(N3N=C(c4cccc(F)c4)CC3c3ccc4ccccc4c3)cc2)c1 (centres unmarked) [Compound H10, (E)-4-(3-(3-Fluorophenyl)-5-(naphthalen-2-yl)-4,5-dihydro-1H-pyrazol-1-yl)-N′-(3-methoxybenzylidene)-benzohydrazide] | 58.6 | 80.1 | 84.1 | 92.5 | 95.8 | 241 to 243 | 20
COc1cccc(/C=N/NC(=O)c2ccc(N3N=C(c4cccc(Cl)c4)CC3c3ccc4ccccc4c3)cc2)c1 (centres unmarked) [Compound H13, (E)-4-(3-(3-Chlorophenyl)-5-(naphthalen-2-yl)-4,5-dihydro-1H-pyrazol-1-yl)-N′-(3-methoxybenzylidene)-benzohydrazide] | 35.2 | 51.3 | 46.4 | 45.4 | 93.4 | 231 to 233 | 11.9
C#Cc1cccc(Nc2ncnc3cc(OCCOC)c(OCCOC)cc23)c1 [Erlotinib, reference compound] | 0.2 | 0.12 | 0.17 | 0.1 | – | – | –
CCOc1ccc(C2=NN(c3ccc(C(=O)N/N=C/c4ccc(OC)cc4)cc3)C(c3ccc4ccccc4c3)C2)cc1 (centres unmarked) [Compound H24, (E)-4-(3-(4-Ethoxyphenyl)-5-(naphthalen-2-yl)-4,5-dihydro-1H-pyrazol-1-yl)-N′-(4-methoxybenzylidene)-benzohydrazide] | 9.92 | 13.8 | 15.3 | 18.6 | 81.3 | 237 to 239 | 6.65
COc1ccc(/C=N/NC(=O)c2ccc(N3N=C(c4ccc(Cl)c(Cl)c4)CC3c3ccc4ccccc4c3)cc2)cc1 (centres unmarked) [Compound H31, (E)-4-(3-(3,4-Dichlorophenyl)-5-(naphthalen-2-yl)-4,5-dihydro-1H-pyrazol-1-yl)-N'-(4-methoxy-benzylidene)benzohydrazide] | 24.8 | 34.4 | 31.8 | 36.3 | 84.8 | 243 to 245 | 9.66
COc1ccc(/C=N/NC(=O)c2ccc(N3N=C(c4cc(OC)c(OC)c(OC)c4)CC3c3ccc4ccccc4c3)cc2)cc1 (centres unmarked) [Compound H23, (E)-N′-(4-Methoxybenzylidene)-4-(5-(naphthalen-2-yl)-3-(3,4,5-trimethoxyphenyl)-4,5-dihydro-1H-pyrazol-1-yl)benzohydrazide] | 75.7 | 93.2 | 94.1 | 89.5 | 85.8 | 237 to 239 | 24.6
COc1ccc(/C=N/NC(=O)c2ccc(N3N=C(c4ccc(Cl)cc4)CC3c3ccc4ccccc4c3)cc2)cc1 (centres unmarked) [Compound H30, (E)-4-(3-(4-Chlorophenyl)-5-(naphthalen-2-yl)-4,5-dihydro-1H-pyrazol-1-yl)-N′-(4-methoxybenzylidene)-benzohydrazide] | 28.6 | 40.4 | 35.3 | 38.2 | 88.5 | 237 to 239 | 10
COc1ccc(/C=N/NC(=O)c2ccc(N3N=C(c4ccc(Br)cc4)CC3c3ccc4ccccc4c3)cc2)cc1 (centres unmarked) [Compound H32, (E)-4-(3-(4-Bromophenyl)-5-(naphthalen-2-yl)-4,5-dihydro-1H-pyrazol-1-yl)-N′-(4-methoxybenzylidene)-benzohydrazide] | 19.7 | 30.2 | 25.6 | 32.9 | 83.6 | 238 to 240 | 8.64
COc1cccc(/C=N/NC(=O)c2ccc(N3N=C(c4ccc(F)cc4)CC3c3ccc4ccccc4c3)cc2)c1 (centres unmarked) [Compound H11, (E)-4-(3-(4-Fluorophenyl)-5-(naphthalen-2-yl)-4,5-dihydro-1H-pyrazol-1-yl)-N′-(3-methoxybenzylidene)-benzohydrazide] | 45.2 | 60.8 | 56.2 | 60.9 | 86.5 | 235 to 237 | 14.1
COc1cccc(/C=N/NC(=O)c2ccc(N3N=C(c4ccc(Cl)cc4)CC3c3ccc4ccccc4c3)cc2)c1 (centres unmarked) [Compound H14, (E)-4-(3-(4-Chlorophenyl)-5-(naphthalen-2-yl)-4,5-dihydro-1H-pyrazol-1-yl)-N′-(3-methoxybenzylidene)-benzohydrazide] | 30.1 | 42.5 | 37.4 | 40.2 | 90.1 | 236 to 238 | 10.3
